Experimental data from patent US7745152B2, “Method for determining genotoxicity” (priority 2004, dated 2010).
Where a name gives a salt, the structure may show the parent alone. Read-outs that look alike come from different tables or passages of the source. Each block holds one compound with its values, some of them ahead of it. *1 amine or outer side, *2 acyl side, *3 side chain or, on linkers, in order; H or OH if unused. Where a SMILES comes first, the peptide text is derived from it. Bridges are numbered along the chain shown (N, C = ends). Roman numbers before positions name the chains, in order. [ ]: non-standard residue; d: D form. Actinocin(9to1) = Cc1c2oc3c(C)ccc(C(=O)[*:1])c3nc-2c(C(=O)[*:2])c(N)c1=O; NMeV = CN[C@H](C(=O)O)C(C)C; Sar = CNCC(=O)O

Tests used:
C2C12 cells [1] = tested on: C2C12 cells
DDA3 = details: cited from earlier work
Dda3 mRNA = experiment: RT-PCR assay of Dda3 mRNA in C2C12 cells; type: cell-based, mouse; details: C2C12, 24 hour drug, 18 hour differentiation; relative to vehicle
4833427G06Rik mRNA = experiment: RT-PCR assay of 4833427G06Rik (Dog1) mRNA in C2C12 cells; type: cell-based, mouse; details: C2C12, 24 hour drug, 18 hour differentiation; relative to vehicle
C2C12 cells [2] = experiment: Genomic assay: gene expression analysis (Affymetrix Murine Genome MOE430) in C2C12 cells induced to differentiate
[3] = C2C12, 24 h drug (μg/ml: BLEO 0.5, CIS 0.6, ETOP 0.5, MMS 0.008, MNNG 4, VINC 0.6), then 6, 18 or 24 h differentiation, vs DMSO

Compound: O=[N+]([O-])c1ccc2c(c1)Cc1ccccc1-2 [2-nitrofluorene]
Lowest effective dose (C2C12 cells [1]; mouse): 5.2 µg/mL

Compound: O=c1[nH]cc(F)c(=O)[nH]1 [5-fluorouracil]
Lowest effective dose (C2C12 cells [1]; mouse, 24 h): 0.0008 µg/mL

Compound: Cc1c2oc3c(C)ccc(C(=O)N[C@@H]4C(=O)N[C@H](C(C)C)C(=O)N5CCC[C@H]5C(=O)N(C)CC(=O)N(C)[C@@H](C(C)C)C(=O)O[C@@H]4C)c3nc-2c(C(=O)N[C@@H]2C(=O)N[C@H](C(C)C)C(=O)N3CCC[C@H]3C(=O)N(C)CC(=O)N(C)[C@@H](C(C)C)C(=O)O[C@@H]2C)c(N)c1=O [Actinomycin D] (I: T[dV]P[Sar][NMeV] / II: T[dV]P[Sar][NMeV]; ester I:1-I:C, II:1-II:C; linker I:N-II:N via Actinocin(9to1))
Lowest effective dose (C2C12 cells [1]): 0.00075 µg/mL

Compound: N.N.[Cl][Pt][Cl] [Cisplatin]
Lowest effective dose (C2C12 cells [1]): 0.15 µg/mL
extreme block of differentiation: cell death in differentiation media (C2C12 cells [1]): the cells begin to die after 3 days in differentiation media

Compound: CC/C(=C(/CC)c1ccc(O)cc1)c1ccc(O)cc1 [Diethylstilbestrol (DES), Diethylstilbestrol]
Lowest effective dose (C2C12 cells [1]; mouse, 24 h): 1.8 µg/mL

Compound: CCOS(C)(=O)=O [Methanesulfonate ethyl ester (EMS), Methanesulfonate ethyl ester]
Lowest effective dose (C2C12 cells [1]; mouse, 24 h): 100 µg/mL

Compound: CO[C@@]12[C@H](COC(N)=O)C3=C(C(=O)C(C)=C(N)C3=O)N1C[C@@H]1N[C@@H]12 [Mitomycin C]
DDA3 expression in NIH3T3 cells exposed to DNA damaging agents (DDA3): upregulated

Compound: COc1cccc2c1C(=O)c1c(O)c3c(c(O)c1C2=O)C[C@@](O)(C(=O)CO)C[C@@H]3O[C@H]1C[C@H](N)[C@H](O)[C@H](C)O1 [adriamycin]
DDA3 expression in NIH3T3 cells exposed to DNA damaging agents (DDA3): upregulated

Compound: Bleomycin sulfate
Lowest effective dose (C2C12 cells [1]): 1 µg/mL

More lines, main results first:

Lowest effective dose (C2C12 cells [1]; mouse, 24 h): 0.005 µg/mL
Compound: COc1cccc2c1C(=O)c1c(O)c3c(c(O)c1C2=O)C[C@@](O)(C(=O)CO)C[C@@H]3O[C@H]1C[C@H](N)[C@H](O)[C@H](C)O1 [Doxorubicin HCl]

Lowest effective dose (C2C12 cells [1]; mouse, 24 h): 0.002 µg/mL
Compound: CC(=O)O[C@H]1C(=O)[C@@]2(C)[C@H]([C@H](OC(=O)c3ccccc3)[C@]3(O)C[C@H](OC(=O)[C@H](O)[C@@H](NC(=O)c4ccccc4)c4ccccc4)C(C)=C1C3(C)C)[C@]1(OC(C)=O)CO[C@@H]1C[C@@H]2O [Paclitaxel]

Lowest effective dose (C2C12 cells [1]; mouse, 24 h): 0.0006 µg/mL
Compound: CC[C@]1(O)C[C@@H]2CN(CCc3c([nH]c4ccccc34)[C@@](C(=O)OC)(c3cc4c(cc3OC)N(C)[C@H]3[C@@](O)(C(=O)OC)[C@H](OC(C)=O)[C@]5(CC)C=CCN6CC[C@]43[C@@H]65)C2)C1 [Vinblastine sulfate]
relative expression of Dda3 mRNA (Dda3 mRNA): much larger increase in expression of these indicator genes than did vincristine
relative expression of 4833427G06Rik mRNA (4833427G06Rik mRNA): much larger increase in expression of these indicator genes than did vincristine

Lowest effective dose (C2C12 cells [1]; mouse, 24 h): 0.002 µg/mL
Fold change in expression: Ephx1, Epoxide hydrolase 1 (microsomal xenobiotic hydrolase) (C2C12 cells [2]; [3]): 1.10 fold
Fold change in expression: Hgf, Hepatocyte growth factor (scatter factor) (C2C12 cells [2]; [3]): 2.00 fold
Compound: CC[C@]1(O)C[C@H]2CN(CCc3c([nH]c4ccccc34)[C@@](C(=O)OC)(c3cc4c(cc3OC)N(C=O)[C@H]3[C@@](O)(C(=O)OC)[C@H](OC(C)=O)[C@]5(CC)C=CCN6CC[C@]43[C@@H]65)C2)C1 [Vincristine sulfate]
Fold change in expression: 0610013D04 Rik, RIKEN cDNA (C2C12 cells [2]; [3]): 2.00 fold
Fold change in expression: 1600013K19 Rik, RIKEN cDNA (C2C12 cells [2]; [3]): 0.98 fold
Fold change in expression: 2610005B21 Rik, RIKEN cDNA (C2C12 cells [2]; [3]): 0.81 fold
Fold change in expression: 2610019I03 RIK, RIKEN cDNA (C2C12 cells [2]; [3]): 0.76 fold
Fold change in expression: 2610509G12 Rik, RIKEN cDNA (C2C12 cells [2]; [3]): 0.55 fold
Fold change in expression: 2810417H13 Rik, RIKEN cDNA (C2C12 cells [2]; [3]): 0.96 fold
Fold change in expression: 4833427G06 Rik, RIKEN cDNA (C2C12 cells [2]; [3]): 0.98 fold
Fold change in expression: 6530401L14 Rik, RIKEN cDNA (C2C12 cells [2]; [3]): 0.53 fold
Fold change in expression: 9030617O03 Rik, RIKEN cDNA (C2C12 cells [2]; [3]): 1.20 fold
Fold change in expression: Anxa8, Annexin A8 (C2C12 cells [2]; [3]): 1.80 fold
Fold change in expression: Asflb, ASF1 anti-silencing function 1 homolog B (Saccharomyces) (C2C12 cells [2]; [3]): 0.71 fold
Fold change in expression: Birc5, Baculoviral IAP repeat-containing 5 (C2C12 cells [2]; [3]): 0.87 fold
Fold change in expression: Brca1, Breast cancer 1 (C2C12 cells [2]; [3]): 0.51 fold
Fold change in expression: Calmbp1, Calmodulin binding protein 1 (C2C12 cells [2]; [3]): 0.40 fold
Fold change in expression: Capn6, Calpain 6 (C2C12 cells [2]; [3]): 0.83 fold
Fold change in expression: Ccna2, Cyclin A2 (C2C12 cells [2]; [3]): 0.82 fold
Fold change in expression: Ccng1, Cyclin G1 (C2C12 cells [2]; [3]): 1.80 fold
Fold change in expression: Cilp, Cartilage intermediate layer pro (C2C12 cells [2]; [3]): 0.77 fold
Fold change in expression: Cks2, CDC28 protein kinase regulatory subunit 2 (C2C12 cells [2]; [3]): 0.78 fold
Fold change in expression: D4Ertd421e, DNA segment, Chr 4, ERATO Doi 421, expressed (C2C12 cells [2]; [3]): 0.64 fold
Fold change in expression: Dda3-pending, Differential display and activated by p53 (C2C12 cells [2]; [3]): 2.00 fold
Fold change in expression: E2f7, E2F transcription factor 7 (C2C12 cells [2]; [3]): 0.63 fold
Fold change in expression: E030024M05 Rik, RIKEN cDNA (C2C12 cells [2]; [3]): 1.20 fold
Fold change in expression: E130315B21 Rik, RIKEN cDNA (C2C12 cells [2]; [3]): 0.70 fold
Fold change in expression: Fbxo5, f-box only protein 31 (C2C12 cells [2]; [3]): 0.54 fold
Fold change in expression: Foxm1, Forkhead box M1 (C2C12 cells [2]; [3]): 0.68 fold
Fold change in expression: Gmnn, Geminin (C2C12 cells [2]; [3]): 0.65 fold
Fold change in expression: Gnpi, Glucosamine-6-phosphate deaminase (C2C12 cells [2]; [3]): 1.60 fold
Fold change in expression: Hmgb2, High mobility group box 2 (C2C12 cells [2]; [3]): 0.57 fold
Fold change in expression: Hmgb3, High mobility group box 3 (C2C12 cells [2]; [3]): 0.67 fold
Fold change in expression: Hmmr, Hyaluronan mediated motility receptor (RHAMM) (C2C12 cells [2]; [3]): 0.52 fold
Fold change in expression: Kifl1, Kinesin 11 (C2C12 cells [2]; [3]): 0.46 fold
Fold change in expression: Lek1, Leucine, glutamic acid, lysine family 1 protein (C2C12 cells [2]; [3]): 0.45 fold
Fold change in expression: Ly6e, Lymphocyte antigen 6 complex, locus E (C2C12 cells [2]; [3]): 1.30 fold
Fold change in expression: M-phosph1, M-phase phosphoprotein (C2C12 cells [2]; [3]): 0.37 fold
Fold change in expression: MGC:32192, Mus musculus cDNA clone MGC: 32192 IMAGE: 5006129 (C2C12 cells [2]; [3]): 0.71 fold
Fold change in expression: Mad2l1, MAD2 (mitotic arrest deficient, homolog)-like 1 (yeast) (C2C12 cells [2]; [3]): 0.64 fold
Fold change in expression: Mad3, Max dimerization protein 3 (C2C12 cells [2]; [3]): 0.89 fold
Fold change in expression: Mcm3, Minichromosome maintenance deficient 3 (Saccharomyces) (C2C12 cells [2]; [3]): 0.69 fold
Fold change in expression: Mcmd4, Minichromosome maintenance deficient 4 homolog (C2C12 cells [2]; [3]): 0.64 fold
Fold change in expression: Mki67, Antigen identified by MAb Ki67 (C2C12 cells [2]; [3]): 0.43 fold
Fold change in expression: Mmhead, Mus musculus 15 day embryo head cDNA clone (C2C12 cells [2]; [3]): 0.95 fold
Fold change in expression: Nos3, Nitric oxide synthase 3, endothelial cell (C2C12 cells [2]; [3]): 1.30 fold
Fold change in expression: Np95, Nuclear protein 95 (C2C12 cells [2]; [3]): 0.71 fold
Fold change in expression: Nusap1, Nucleolar and spindle associated protein 1 (C2C12 cells [2]; [3]): 0.56 fold
Fold change in expression: Osbp16, Oxysterol binding protein-like 6 (C2C12 cells [2]; [3]): 1.10 fold
Fold change in expression: Pbk, PDZ binding kinase (C2C12 cells [2]; [3]): 0.62 fold
Fold change in expression: Pcna, Proliferating cell nuclear antigen (C2C12 cells [2]; [3]): 0.70 fold
Fold change in expression: Phex, Phosphate regulating neutral endopeptidase (X chromosome) (C2C12 cells [2]; [3]): 0.67 fold
Fold change in expression: Plf, Proliferin (C2C12 cells [2]; [3]): 1.10 fold
Fold change in expression: Pola1, DNA polymerase alpha 1, 180 kDa (C2C12 cells [2]; [3]): 0.51 fold
Fold change in expression: Prc1, Protein regulator of cytokinesis 1 (C2C12 cells [2]; [3]): 0.63 fold
Fold change in expression: Prelp, Proline arginine-rich end leucine-rich repeat (C2C12 cells [2]; [3]): 0.58 fold
Fold change in expression: Prim1, DNA primase, p49 subunit (C2C12 cells [2]; [3]): 0.54 fold
Fold change in expression: Rad51ap1, RAD51-associated protein 1 (C2C12 cells [2]; [3]): 0.59 fold
Fold change in expression: Rbl1, Retinoblastoma-like 1 (p107) (C2C12 cells [2]; [3]): 0.67 fold
Fold change in expression: Serpine1, Ser (or Cys) proteinase inhibitor, clade E, member 1 (C2C12 cells [2]; [3]): 1.00 fold
Fold change in expression: Sesn2, Sestrin 2 (C2C12 cells [2]; [3]): 2.38 fold
Fold change in expression: Shcbp1, Shc SH2-domain binding protein 1 (C2C12 cells [2]; [3]): 0.52 fold
Fold change in expression: Slc35a5, Solute carrier family 35, member A5 (C2C12 cells [2]; [3]): 1.30 fold
Fold change in expression: Smc2l1, SMC2 structural maintenance of chromosomes 2-like 1 (C2C12 cells [2]; [3]): 0.75 fold
Fold change in expression: Stk18, Serine/threonine kinase 18 (C2C12 cells [2]; [3]): 0.63 fold
Fold change in expression: Tacc3, Transforming, acidic coiled-coil containing protein 3 (C2C12 cells [2]; [3]): 0.73 fold
Fold change in expression: Tagln, Transgelin (smooth muscle 22 protein) (C2C12 cells [2]; [3]): 0.84 fold
Fold change in expression: Tk1, Thymidine kinase 1 (C2C12 cells [2]; [3]): 0.62 fold
Fold change in expression: Top2a, Topoisomerase (DNA) II alpha (C2C12 cells [2]; [3]): 0.52 fold
Fold change in expression: Trp53inp1, Transformation related protein, 53 inducible nuclear protein 1 (C2C12 cells [2]; [3]): 1.60 fold
Fold change in expression: Usp30, Ubiquitin specific protease 30 (C2C12 cells [2]; [3]): 2.00 fold
Fold change in expression: Wig1, Wild-type p53-induced gene 1 (C2C12 cells [2]; [3]): 1.20 fold
pattern of gene expression changes (C2C12 cells [2]; C2C12, vincristine sulfate 0.6 μg/ml 24 h, relative to the five other drugs tested): induced a distinct pattern of gene expression changes relative to the five other drugs tested
Fold change in expression: Slc19a2, Solute carrier family 19 (thiamine transporter), member 2 (C2C12 cells [2]; first Slc19a2 entry (r16), C2C12, 24 h drug (μg/ml: BLEO 0.5, CIS 0.6, ETOP 0.5, MMS 0.008, MNNG 4, VINC 0.6), then 6, 18 or 24 h differentiation, vs DMSO): 1.40 fold
Fold change in expression: Slc19a2, Solute carrier family 19 (thiamine transporter), member 2 (C2C12 cells [2]; second Slc19a2 entry (r72), C2C12, 24 h drug (μg/ml: BLEO 0.5, CIS 0.6, ETOP 0.5, MMS 0.008, MNNG 4, VINC 0.6), then 6, 18 or 24 h differentiation, vs DMSO): 1.10 fold
